In publication PMC8424217 (The Journal of Biological Chemistry, 2021):
Peptide text beside a SMILES is read from it. * marks the point of attachment. Palmitoyl = CCCCCCCCCCCCCCCC(=O)*

Experiments:
Type in all cases: cell-based
[1] = system: CHO-K1 cells; test: IP1 production, IP-One terbium immunoassay, untransfected CHO-K1 cells; settings: CHO-K1, 40 min incubation
Protocol: This assay, performed with the IP-One terbium immunoassay kits from Cisbio, was used according to the manufacturer recommendation and as previously described ([43]). Briefly, CHO-hUT cells were grown in 10-cm dishes for 24 h. The cells were then starved without serum. The next day, cells were washed once with PBS and collected in PBS containing 20 mM EDTA. For the assay, 80,000 cells per well (96-well plate) were used. […] IP1-d2 and anti-IP1-cryptate were added for an additional 2 h at room temperature. Plates were read on a Flexstation 3 microplate reader.
[Trp1, Leu2]hUT-Pep3. IP1 production was evaluated using the IP-One terbium immunoassay
kitsinCHO-K1 cells.Each histogram represents the mean ± SEM of atleast threeindependent
experiments performed in triplicate.
(also on this page, place not known: (% Maximal Response) FigureS3.IP1productioninCHO-K1cellsfollowingtreatmentbyhUII,hUT-Pep2or [Trp1,Leu2]hUT-Pep3.IP1productionwasevaluatedusingtheIP-Oneterbiumimmunoassay kitsinCHO-K1cells.Eachhistogramrepresentsthemean±SEMofatleastthreeindependent experimentsperformedintriplicate.)

[2] = system: HEK 293-hUT cells; test: Cell proliferation, MTT assay and flow cytometry, HEK 293-hUT cells; settings: 10^−6 M, three independent experiments in triplicate
Protocol: (§1) Each bar corresponds to the mean ± SEM obtained from three independent experiments conducted in triplicate.
HEK 293-hUT cell proliferation was evaluated by flow cytometry using propidium iodide DNA staining. […] Next, cells were detached, fixed with cold 70% ethanol, and then stored at –20 °C for at least 2 h. Cells were centrifuged at 200 rpm for 10 min at 4 °C and washed at least once with cold PBS. Cells were then resuspended in Triton X-100 (0.1%) supplemented with propidium iodide (500 μg mL^−1), and 200 μg mL^−1 of DNAse-free RNAse A in PBS. Data, expressed as the mean ± SEM of at least three independent experiments, were acquired on a FACScan (BD Biosciences), and results were analyzed with the FlowJo v10 software. The proliferation index is defined as the total number of divisions divided by the number of cells that went into division.

[3] = system: rat neonatal cardiac fibroblasts; test: Rat cardiac neonatal fibroblast proliferation, high content imaging; settings: 10^−6 M, 24 h, three independent experiments in triplicate
From the text: as §1
Neonatal cardiac rat fibroblasts, endogenously expressing UT ([82]), were obtained from 1–3-day-old Sprague-Dawley pups as previously reported ([83]). Briefly, hearts obtained from neonatal rats were enzyme-digested and after centrifugation, cells were preplated to separate cardiomyocytes from fibroblasts. As reported, the adherent nonmyocyte fractions correspond predominantly to fibroblasts while the supernatants largely contain the cardiomyocytes. After several washes, attached fibroblasts were trypsinized and then cultured at 37 °C in 96-well plate (6000 cells per well) in low glucose-DMEM supplemented with 7% FBS, 100 units/ml of penicillin, and 100 μg/ml of streptomycin. After 48 h, cells were washed twice with low glucose-DMEM, and starved for 12 h in this medium. […] Cells are incubated with primary anti-smooth muscle α-actin antibody (1/500) in 10% horse serum/PBS overnight at 4 °C and later with secondary anti-rabbit Alexa Fluor 488 (1/1000) for 1 h at RT. Cell staining was performed using cell mask (1 μg mL^−1) in PBS for 30 min at room temperature and with Hoechst dye in PBS (1 μg/ml) for 10 min. Analysis was performed on an Opera Phoenix High Content Imaging System with a 20× water objective.

[4] = target: T1, hUT (Homo sapiens, UniProt Q9UKP6); test: Gi activation, BRET biosensor, HEK 293-hUT cells; parameters: expressed in transfected cells; settings: for EC50: HEK 293-hUT, BRET, mean ± SEM, n = 3–5, read-out: Gi activation pEC50 (converted)
T1 sequence (Q9UKP6 1-389): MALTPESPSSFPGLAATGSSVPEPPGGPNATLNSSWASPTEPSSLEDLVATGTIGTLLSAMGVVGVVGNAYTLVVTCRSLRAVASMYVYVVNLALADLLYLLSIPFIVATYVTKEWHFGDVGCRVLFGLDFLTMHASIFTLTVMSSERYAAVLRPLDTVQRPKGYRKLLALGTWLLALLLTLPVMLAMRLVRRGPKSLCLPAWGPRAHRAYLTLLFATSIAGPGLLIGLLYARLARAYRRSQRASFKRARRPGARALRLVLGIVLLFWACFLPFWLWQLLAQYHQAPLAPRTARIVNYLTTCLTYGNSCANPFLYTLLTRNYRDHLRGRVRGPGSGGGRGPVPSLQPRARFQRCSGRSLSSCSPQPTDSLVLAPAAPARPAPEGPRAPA

[5] = target: T1, hUT; test: EGFR transactivation (EGFR-GFP internalization, confocal microscopy), HEK 293-hUT cells; parameters: expressed in transfected cells; settings: 30 min; for EGFR internalization: 10^−6 M; for EGFR transactivation after YM254890 (Gq inhibitor): YM254890 100 nM 1 h pretreatment, peptide 10^−6 M
Protocol: EGFR internalization, following hUT stimulation with various ligands for 30 min, was visualized using confocal microscopy. The images shown are from representative experiments repeated at least three times.
HEK 293 and HEK 293-hUT cells, transiently transfected with cDNA encoding fluorescently labeled EGFR (EGFR-GFP) (2 μg), were plated onto 35-mm glass-bottomed culture dishes (MatTek Corp). Following stimulation, cells were washed once with PBS and fixed in 4% paraformaldehyde for 15 min. To study the involvement of Gq in EGFR internalization, cells were treated with YM254890 (100 nM) for 1h prior peptide treatments. […] EGFR-GFP internalization was visualized using a combination of excitation (488 nm) and emission filters (499 and 520 nm).

Structure (SMILES) | IP1 production in untransfected CHO-K1 cells [1] | HEK 293-hUT cell proliferation [2] | rat neonatal cardiac fibroblast proliferation [3] | Emax [4] [%] | EC50 [4] [nM] | EGFR internalization [5] | EGFR transactivation after YM254890 (Gq inhibitor) [5] | Emax at 1 µM [4] [%]
CCCCCCCCCCCCCCCC(=O)N[C@@H](Cc1c[nH]c2ccccc12)C(=O)N[C@@H](CC(C)C)C(=O)N[C@@H](CO)C(=O)N[C@@H](CCC(N)=O)C(=O)N[C@@H](CCCNC(=N)N)C(=O)N[C@@H](C)C(=O)N[C@@H](CO)C(=O)N[C@@H](Cc1ccccc1)C(=O)N[C@@H](CCCCN)C(=O)N[C@@H](CCCNC(=N)N)C(=O)N[C@@H](C)C(=O)N[C@@H](CCCNC(=N)N)C(=O)N[C@@H](CCCNC(=N)N)C(N)=O [[Trp^1, Leu^2]hUT-Pep3] (Palmitoyl-WLSQRASFKRARR-NH2) | not untransfected CHO-K1 cells | able to induce HEK 293-hUT cell proliferation | proliferative action in rat neonatal cardiac fibroblasts similar to what was observed with hUII | 97 ± 2 | 0.0407 | significant internalization of EGFR-GFP | almost completely abolished | 
CC(C)[C@H](NC(=O)[C@@H]1CSSC[C@H](NC(=O)[C@H](CC(=O)O)NC(=O)[C@@H]2CCCN2C(=O)[C@@H](NC(=O)[C@@H](N)CCC(=O)O)[C@@H](C)O)C(=O)N[C@@H](Cc2ccccc2)C(=O)N[C@@H](Cc2c[nH]c3ccccc23)C(=O)N[C@@H](CCCCN)C(=O)N[C@@H](Cc2ccc(O)cc2)C(=O)N1)C(=O)O [hUII, urotensin II, reference compound] |  | able to induce HEK 293-hUT cell proliferation | proliferative action in rat neonatal cardiac fibroblasts similar to what was observed with hUII |  |  | resulted in EGFR internalization |  | 93 ± 2
CCCCCCCCCCCCCCCC(=O)N[C@@H](CCCNC(=N)N)C(=O)N1CCC[C@H]1C(=O)N[C@@H](CC(C)C)C(=O)N[C@@H](CC(=O)O)C(=O)N[C@H](C(=O)N[C@H](C(=O)N[C@@H](CCC(N)=O)C(=O)N[C@@H](CCCNC(=N)N)C(=O)N1CCC[C@H]1C(=O)N[C@@H](CCCCN)C(=O)NCC(=O)N[C@@H](Cc1ccc(O)cc1)C(N)=O)C(C)C)[C@@H](C)O [hUT-Pep2] (Palmitoyl-RPLDTVQRPKGY-NH2) | not untransfected CHO-K1 cells | not hUT-Pep2 were able to induce HEK 293-hUT cell proliferation | proliferative action in rat neonatal cardiac fibroblasts similar to what was observed with hUII | 96 ± 2 | 0.0813 | significant internalization of EGFR-GFP | almost completely abolished | 
